From ChEMBL document CHEMBL1201862, “PubChem BioAssay data set” (2004)
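Five compound concentrations were applied to cells in 96-well plates for 48 hours; endpoints were derived by simple linear interpolation of the resulting dose-response curve. The concentration for 50% growth inhibition is given as GI50.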 Calls of active or inactive are those of the source. Cut-off read from the data, not from the text of the source: active = GI50 up to about 1.1 µM and inactive = higher. Non-standard residues stand in square brackets, D forms with d. Residues, ends and D or L forms follow the SMILES beside them. *: point of attachment. Cbz = O=C(OCc1ccccc1)*; Boc = CC(C)(C)OC(=O)*; Aib = CC(C)(N)C(=O)O; OBn = c1ccc(CO*)cc1; OtBu = CC(C)(C)O*; βAla = NCCC(=O)O

How the values were obtained:
Assay in all cases: NCI-60 cell line screen, 48 h
OVCAR-3 = system: OVCAR-3
SN12C = system: SN12C
IGROV-1 = system: IGROV-1
EKVX = system: EKVX
MCF7 = system: MCF7
RXF 393 = system: RXF 393
NCI-H23 = system: NCI-H23
NCI/ADR-RES = system: NCI/ADR-RES
MDA-N = system: MDA-N
RPMI-8226 = system: RPMI-8226
SW-620 = system: SW-620
UO-31 = system: UO-31
DU-145 = system: DU-145
CAKI-1 = system: CAKI-1
UACC-257 = system: UACC-257
NCI-H226 = system: NCI-H226
SF-268 = system: SF-268
Malme-3M = system: Malme-3M
Hs-578T = system: Hs-578T
HCT-116 = system: HCT-116

Compound	GI50 (OVCAR-3)	GI50 (SN12C)	GI50 (IGROV-1)	GI50 (EKVX)	GI50 (MCF7)	GI50 (RXF 393)	GI50 (NCI-H23)	GI50 (NCI/ADR-RES)	GI50 (MDA-N)	GI50 (RPMI-8226)	GI50 (SW-620)	GI50 (UO-31)	GI50 (DU-145)	GI50 (CAKI-1)	GI50 (UACC-257)	GI50 (NCI-H226)	GI50 (SF-268)	GI50 (Malme-3M)	GI50 (Hs-578T)	GI50 (HCT-116)
CCOc1cc2c(cc1O)CC[C@@H]1[C@@H]2CC[C@]2(C)C(N)CC[C@@H]12 (some centres undefined)	0.811 µM (active)	4.09 µM (inactive)	3.78 µM (inactive)	4.27 µM (inactive)	3.37 µM (inactive)	1.21 µM (inactive)	3.48 µM (inactive)	2.69 µM (inactive)	1.44 µM (inactive)	3.01 µM (inactive)	3.04 µM (inactive)	3.54 µM (inactive)	2.36 µM (inactive)	4.22 µM (inactive)	3.44 µM (inactive)	2.77 µM (inactive)	3.57 µM (inactive)	11.8 µM (inactive)	3.67 µM (inactive)	3.05 µM (inactive)
Cc1ccc(NC(=O)/C(=N\NC(N)=O)c2c(O)c3ccccc3[nH]c2=O)cc1	> 100 µM (inactive)	> 100 µM (inactive)	–	–	> 100 µM (inactive)	> 100 µM (inactive)	> 100 µM (inactive)	> 100 µM (inactive)	> 100 µM (inactive)	> 100 µM (inactive)	> 100 µM (inactive)	> 100 µM (inactive)	> 100 µM (inactive)	> 100 µM (inactive)	> 100 µM (inactive)	> 100 µM (inactive)	> 100 µM (inactive)	–	> 100 µM (inactive)	> 100 µM (inactive)
COc1ccc(C(=O)/C=C/c2cccnc2)cc1OC	3.4 µM (inactive)	6.25 µM (inactive)	9.64 µM (inactive)	15.1 µM (inactive)	3.27 µM (inactive)	5.81 µM (inactive)	10.6 µM (inactive)	14.5 µM (inactive)	12.4 µM (inactive)	2.6 µM (inactive)	–	13.5 µM (inactive)	14.6 µM (inactive)	4.44 µM (inactive)	15.6 µM (inactive)	12.1 µM (inactive)	7.55 µM (inactive)	15.2 µM (inactive)	14.6 µM (inactive)	4.36 µM (inactive)
NC(=O)CCC(CCC(N)=O)(CCC(N)=O)[N+](=O)[O-]	–	> 100 µM (inactive)	> 100 µM (inactive)	> 100 µM (inactive)	> 100 µM (inactive)	> 100 µM (inactive)	> 100 µM (inactive)	> 100 µM (inactive)	> 100 µM (inactive)	> 100 µM (inactive)	> 100 µM (inactive)	> 100 µM (inactive)	> 100 µM (inactive)	> 100 µM (inactive)	> 100 µM (inactive)	25.4 µM (inactive)	> 100 µM (inactive)	> 100 µM (inactive)	> 100 µM (inactive)	> 100 µM (inactive)
CC1=C(C)C2(C#N)C(=O)N3C(=NC(c4ccco4)NC3c3ccco3)C2(C#N)C(c2ccco2)N1 (centres undefined)	–	> 100 µM (inactive)	> 100 µM (inactive)	> 100 µM (inactive)	> 100 µM (inactive)	> 100 µM (inactive)	> 100 µM (inactive)	> 100 µM (inactive)	> 100 µM (inactive)	> 100 µM (inactive)	> 100 µM (inactive)	> 100 µM (inactive)	> 100 µM (inactive)	> 100 µM (inactive)	> 100 µM (inactive)	> 100 µM (inactive)	> 100 µM (inactive)	> 100 µM (inactive)	> 100 µM (inactive)	> 100 µM (inactive)
Clc1ccc2c(c1)CC1C[N+]3=C(CCCC3)C1=C2 (centres undefined)	34.4 µM (inactive)	> 100 µM (inactive)	> 100 µM (inactive)	78.7 µM (inactive)	61.1 µM (inactive)	> 100 µM (inactive)	69 µM (inactive)	> 100 µM (inactive)	> 100 µM (inactive)	–	47.9 µM (inactive)	> 100 µM (inactive)	> 100 µM (inactive)	> 100 µM (inactive)	43.9 µM (inactive)	76.6 µM (inactive)	90.4 µM (inactive)	36.6 µM (inactive)	> 100 µM (inactive)	> 100 µM (inactive)
COc1cc(-c2oc3c(OC)cc(OC)c(O)c3c(=O)c2OC)cc(OC)c1OC	4.79 µM (inactive)	> 100 µM (inactive)	85.5 µM (inactive)	> 100 µM (inactive)	97.1 µM (inactive)	8.28 µM (inactive)	36.3 µM (inactive)	5.46 µM (inactive)	> 100 µM (inactive)	> 100 µM (inactive)	6.28 µM (inactive)	33 µM (inactive)	32.7 µM (inactive)	14.4 µM (inactive)	–	> 100 µM (inactive)	6.95 µM (inactive)	5.97 µM (inactive)	2.93 µM (inactive)	4.32 µM (inactive)
C=C[C@H]1CN2CCc3c([nH]c4c([C@@H]5CCCN5C)c(O)ccc34)[C@@H]2C[C@@H]1C[C@H]1c2[nH]c3ccccc3c2CCN1C	1.64 µM (inactive)	1.82 µM (inactive)	1.32 µM (inactive)	–	1.96 µM (inactive)	0.274 µM (active)	1.82 µM (inactive)	1.85 µM (inactive)	1.67 µM (inactive)	0.478 µM (active)	1.13 µM (inactive)	1.63 µM (inactive)	1.69 µM (inactive)	1.71 µM (inactive)	1.91 µM (inactive)	2.05 µM (inactive)	1.74 µM (inactive)	1.85 µM (inactive)	1.67 µM (inactive)	0.366 µM (active)
CC(C)OP(=O)(CN(C)/C(F)=N\C(F)(F)F)OC(C)C	> 100 µM (inactive)	> 100 µM (inactive)	> 100 µM (inactive)	> 100 µM (inactive)	> 100 µM (inactive)	> 100 µM (inactive)	> 100 µM (inactive)	> 100 µM (inactive)	> 100 µM (inactive)	–	> 100 µM (inactive)	> 100 µM (inactive)	> 100 µM (inactive)	> 100 µM (inactive)	> 100 µM (inactive)	> 100 µM (inactive)	> 100 µM (inactive)	> 100 µM (inactive)	> 100 µM (inactive)	> 100 µM (inactive)
CC(C)(C)OC(=O)CC(NC(=O)OC(C)(C)C)C(=O)NC(CCCCNC(=O)OCc1ccccc1)C(=O)NC(C)(C)C(=O)NCCC(=O)OCc1ccccc1 (centres undefined) (Boc-D(OtBu)K(Cbz)[Aib][βAla]-OBn; configuration not given here)	> 100 µM (inactive)	> 100 µM (inactive)	> 100 µM (inactive)	> 100 µM (inactive)	> 100 µM (inactive)	> 100 µM (inactive)	> 100 µM (inactive)	> 100 µM (inactive)	> 100 µM (inactive)	> 100 µM (inactive)	> 100 µM (inactive)	> 100 µM (inactive)	> 100 µM (inactive)	> 100 µM (inactive)	–	> 100 µM (inactive)	> 100 µM (inactive)	> 100 µM (inactive)	> 100 µM (inactive)	> 100 µM (inactive)
COC(=O)[C@]12CC[C@H]3CC[C@H]([C@H]31)[C@H](c1ccccc1)N2	15.2 µM (inactive)	15.7 µM (inactive)	17 µM (inactive)	16.8 µM (inactive)	16 µM (inactive)	14.2 µM (inactive)	16.8 µM (inactive)	13.9 µM (inactive)	17.9 µM (inactive)	14.2 µM (inactive)	22.2 µM (inactive)	17.4 µM (inactive)	18.5 µM (inactive)	17.7 µM (inactive)	15.1 µM (inactive)	15.4 µM (inactive)	19.6 µM (inactive)	–	23 µM (inactive)	15.6 µM (inactive)
O=C1NC(=S)NC(=O)C1C(c1ccccc1[N+](=O)[O-])C1C(=O)NC(=S)NC1=O.c1ccncc1	> 100 µM (inactive)	> 100 µM (inactive)	–	–	> 100 µM (inactive)	> 100 µM (inactive)	> 100 µM (inactive)	> 100 µM (inactive)	> 100 µM (inactive)	> 100 µM (inactive)	> 100 µM (inactive)	> 100 µM (inactive)	> 100 µM (inactive)	> 100 µM (inactive)	> 100 µM (inactive)	> 100 µM (inactive)	> 100 µM (inactive)	> 100 µM (inactive)	> 100 µM (inactive)	> 100 µM (inactive)
C[C@]12CC/C(=N\O)C=C1CC[C@@H]1[C@@H]2CC[C@]2(C)C(=N/O)/C(=C/c3ccc([N+](=O)[O-])cc3)C[C@@H]12	2.61 µM (inactive)	4.27 µM (inactive)	2.86 µM (inactive)	–	3.59 µM (inactive)	59.6 µM (inactive)	6 µM (inactive)	5.13 µM (inactive)	4.03 µM (inactive)	1.87 µM (inactive)	5.42 µM (inactive)	2.67 µM (inactive)	5.35 µM (inactive)	2.29 µM (inactive)	4.66 µM (inactive)	12.9 µM (inactive)	3.16 µM (inactive)	15 µM (inactive)	3.5 µM (inactive)	3.07 µM (inactive)
COc1cc(C)cc(C(=O)/C=C/c2ccccc2)c1O	16.5 µM (inactive)	16.9 µM (inactive)	12.6 µM (inactive)	19.4 µM (inactive)	12.1 µM (inactive)	16.3 µM (inactive)	16.9 µM (inactive)	21.4 µM (inactive)	23.7 µM (inactive)	21.2 µM (inactive)	20.2 µM (inactive)	17.8 µM (inactive)	14.1 µM (inactive)	19.5 µM (inactive)	16.7 µM (inactive)	24.2 µM (inactive)	25.6 µM (inactive)	–	32.8 µM (inactive)	17.7 µM (inactive)
